# Assay results: US20100047371A1, “COMPOSITIONS AND METHODS FOR ORAL CANCER CHEMOPREVENTION USING BERRY PREPARATIONS AND EXTRACTS” (priority 2006, published 2010)
# System: Human Oral Mucosa Explant Tissues
# Test: Effect of final gel pH on anthocyanin uptake into human oral mucosa explant tissues
# Type: in vitro ADME
# Settings: 10% w/w FBR gel
# Experimental: Anthocyanin content in sera, saliva, and tissue explants was evaluated by an HPLC-MS assay. The respective samples (sera, saliva or tissue homogenates) were dissolved in 90% solvent A (water plus 1% formic acid) and 10% solvent B (acetonitrile plus 1% formic acid) and then separated on a Symmetry C18 reversed-phase column and analyzed using a Waters 2695 gradient HPLC separation module equipped with a 996 photodiode-array (PDA) UV/visible absorbance detector (Milford, Mass.). The solvent system consisted of a step gradient from 90% A to 50% B over 15 minutes, and the absorption spectra were recorded from 200-800 nm with the inline PDA detector. Mass spectrometry was conducted on a quadrupole ion tunnel mass spectrometer equipped with a Z-spray ESI source. Explant protein levels were determined by the Lowry method, using bovine γ-globulin as the standard protein [Lippman et al., 1993]. Tissue explants, specifically human oral mucosal explants, were used to determine the in vitro effects of FBR content and pH on anthocyanin uptake. Human oral tissues for the tissue explant studies were obtained from consenting volunteers who were undergoing elective oral surgery procedures. To confirm “no pathologic diagnosis”, a portion of each of these tissues was submitted for light microscopic evaluation. […] Tissues for explant experiments were immediately placed in an artificial saliva transport medium, which also served as the incubation medium for the gel absorption studies. The composition of the artificial saliva used for tissue transport and incubation was (final concentrations): sodium carboxymethylcellulose (0.5%), sorbitol (165 mM), NaCl (14 mM), KCl (16 mM), calcium chloride dehydrate (1.0 mM), MgCl2 (0.63 mM), Trizma hydrochloride (2.0 mM). Tissues from eight donors were used for preliminary studies to compare the penetration of anthocyanins from the 5% berry gel and the 10% FBR gel, both at a final pH of 6.5. In order to account for heterogeneity among human donors, tissue samples were hemisected. One tissue portion treated with 5% and the other with 10% FBR gels. One gram of gel (containing either 5% or 10% w/w FBR) was placed on the epithelial surface of the explant, followed by gently rubbing of the site for 30 seconds to facilitate uptake. Explants were then placed into artificial saliva, incubated for 30 minutes (37° C., 5% CO2), and then frozen at −80° C. until HPLC-mass spectroscopy analyses as previously reported [Rodrigo et al., in press]. Tissue preparation for HPLC analyses consisted of homogenization of the entire oral mucosal specimen, removal of an aliquot for sample protein level determination, followed by the addition of collagenase type II (0.1 mg/mL, GIBCO, Grand Island, N.Y.) and 1% formic acid. Samples were then placed on a Sep Pack (Millipore, Billerica, Mass.), eluted with methanol, and dried under argon gas. Additional oral mucosal explant studies were conducted to compare the effect of FBR gel pH on absorption into oral mucosal explants. Tissues from eleven donors were used for these studies, and handling was as described above with the exception that all gels contained 10% w/w FBR and were formulated at a final pH of 3.5 or 6.5. […] Large differences (up to 15-fold) in detectable anthocyanin levels were found in the gel treated donor tissues; findings that likely reflect the extensive heterogeneity within human tissues that affects tissue penetrative abilities.
# [1] = average of eleven explant samples
compound,measurement,setting,value
"OC[C@H]1O[C@@H](Oc2cc3c(O)cc(O)cc3[o+]c2-c2ccc(O)c(O)c2)[C@H](O[C@@H]2OC[C@@H](O)[C@H](O)[C@H]2O)[C@@H](O)[C@@H]1O.[Cl-] [Cyanidin 3-sambubioside, cyanidin 3-sambubioside]","Anthocyanin uptake, Gel pH 3.5, Avg. ± SEM",[1],1.9 pmol per mg tissue
same,"Anthocyanin uptake, Gel pH 6.5, Avg. ± SEM",[1],5.3 pmol per mg tissue
same,"% change 3.5 to 6.5, Avg. ± SEM",average of explant samples,89.0%
same,% change 3.5 to 6.5,explant sample 001,319.4%
same,"Anthocyanin uptake, Gel pH 3.5",explant sample 001,7.4 pmol per mg tissue
same,"Anthocyanin uptake, Gel pH 6.5",explant sample 001,30.9 pmol per mg tissue
same,% change 3.5 to 6.5,explant sample 002,427.3%
same,"Anthocyanin uptake, Gel pH 3.5",explant sample 002,0.6 pmol per mg tissue
same,"Anthocyanin uptake, Gel pH 6.5",explant sample 002,2.9 pmol per mg tissue
same,% change 3.5 to 6.5,explant sample 003,−19.7%
same,"Anthocyanin uptake, Gel pH 3.5",explant sample 003,1.8 pmol per mg tissue
same,"Anthocyanin uptake, Gel pH 6.5",explant sample 003,1.4 pmol per mg tissue
same,% change 3.5 to 6.5,explant sample 004,−66.4%
same,"Anthocyanin uptake, Gel pH 3.5",explant sample 004,1.3 pmol per mg tissue
same,"Anthocyanin uptake, Gel pH 6.5",explant sample 004,0.4 pmol per mg tissue
same,% change 3.5 to 6.5,explant sample 005,−61.8%
same,"Anthocyanin uptake, Gel pH 3.5",explant sample 005,0.3 pmol per mg tissue
same,"Anthocyanin uptake, Gel pH 6.5",explant sample 005,0.1 pmol per mg tissue
same,% change 3.5 to 6.5,explant sample 006,330.8%
same,"Anthocyanin uptake, Gel pH 3.5",explant sample 006,2.3 pmol per mg tissue
same,"Anthocyanin uptake, Gel pH 6.5",explant sample 006,10.1 pmol per mg tissue
same,% change 3.5 to 6.5,explant sample 007,−14.6%
same,"Anthocyanin uptake, Gel pH 3.5",explant sample 007,0.4 pmol per mg tissue
same,"Anthocyanin uptake, Gel pH 6.5",explant sample 007,0.4 pmol per mg tissue
same,"Anthocyanin uptake, Gel pH 3.5",explant sample 008,0.0 pmol per mg tissue
same,"Anthocyanin uptake, Gel pH 6.5",explant sample 008,1.9 pmol per mg tissue
same,% change 3.5 to 6.5,explant sample 009,256.9%
same,"Anthocyanin uptake, Gel pH 3.5",explant sample 009,2.9 pmol per mg tissue
same,"Anthocyanin uptake, Gel pH 6.5",explant sample 009,10.3 pmol per mg tissue
same,% change 3.5 to 6.5,explant sample 010,−92.9%
same,"Anthocyanin uptake, Gel pH 3.5",explant sample 010,2.0 pmol per mg tissue
same,"Anthocyanin uptake, Gel pH 6.5",explant sample 010,0.1 pmol per mg tissue
same,% change 3.5 to 6.5,explant sample 011,−100%
same,"Anthocyanin uptake, Gel pH 3.5",explant sample 011,2.1 pmol per mg tissue
same,"Anthocyanin uptake, Gel pH 6.5",explant sample 011,0.0 pmol per mg tissue
